Source: patent US20260374766A1, “METHODS FOR TREATING CANCER” (Antares Therapeutics, Inc., priority 2022, published 2026)
Like-named read-outs stand apart in the source and are kept apart here.

Tests used:
[1] = molecular target: p53 Y220C (Homo sapiens, UniProt P04637, Y220C); experiment: Luciferase Reporter Assay (Luc), p53 response element, NClH1299 cells with inducible p53 Y220C; type: cell-based; conditions: luciferase reporter, NClH1299 inducible p53 Y220C, 6 hour; for AC50: read-out: Luc P53 Y220C AC50
In short: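 Doxycycline (0.5 ug/mL, 24 h) induces the mutant before a 6-hour compound treatment. Reporter activity is then quantified by One-Glo luminescence.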

[2] = system: H1299 p53 R273H; experiment: Cell Proliferation Assay (CellTiter-Glo, CTG), H1299 p53 R273H (NClH1299-inducible p53 R273H); type: cell-based; conditions: Homo sapiens, NCI-H1299, 120 h, CellTiter-Glo, 5 days
In short: (§1)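 NClH1299 lines stably transduced with Tet-inducible p53 Y220C or R273H, plus NUGC3, were treated with compound for 5 days at 250-500 cells/well. IC50 derived from CellTiter-Glo luminescent signal after 10 min room-temperature incubation.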

[3] = system: H1299 p53 Y220C; experiment: Cell Proliferation Assay (CellTiter-Glo, CTG), H1299 p53 Y220C (NClH1299-inducible p53 Y220C); type: cell-based; conditions: Homo sapiens, NCI-H1299, 120 h, CellTiter-Glo, 5 days
In short: as §1

[4] = molecular target: T1, p53 Y220C mutant protein (amino acid residues 94-293) (Homo sapiens, UniProt P04637, Y220C); experiment: Surface Plasmon Resonance (SPR) assay, Kd_kinetic; type: binding; conditions: SPR, p53 Y220C, read-out: SPR P53 Y220C KD kinetic
T1 construct: p53 Y220C mutant protein (amino acid residues 94-293)
In short: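 Temperature held at 16 or 20 °C during Biacore 8K runs. Buffer: 50 mM Tris, pH 7.5, 100 mM NaCl, 1 mM DTT, 0.01% Brij35, 0.05% Tween-20, 1% DMSO.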

[5] = system: NUGC3 p53 Y220C; experiment: Cell Proliferation Assay (CellTiter-Glo, CTG), NUGC3 p53 Y220C; type: cell-based; conditions: Homo sapiens, NUGC-3, 120 h, CellTiter-Glo, 5 days
In short: as §1

[6] = molecular target: T1, p53 Y220C mutant protein (amino acid residues 94-293); experiment: Thermal Shift Assay (TSA), dTM; type: binding; conditions: for ΔTm at 10 µM: 10 uM compound; for ΔTm at 100 µM: 100 uM compound
In short: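 TM is derived by fitting Sypro Orange melt curves (30 °C to 50 °C, 0.03 °C/second) to a Boltzmann two-state model. Beforehand, 5 μM p53 Y220C (94-293) sits with 10 μM or 100 μM compound for 3 hours at 20 °C in HEPES pH7.4 buffer containing 100 mM NaCl and 1% DMSO.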

[7] = 10 uM tool compound as positive control
[8] = thermal shift, read-out: TSA P53 Y220C dTM (10 uM)
[9] = thermal shift, read-out: TSA P53 Y220C dTM (100 uM)
[10] = NClH1299-inducible p53 R273H cells
[11] = NClH1299-inducible p53 Y220C cells
[12] = p53 Y220C, read-out: TSA P53 Y220C dTM

Row | Structure (SMILES) | Emax [1, 7] [%] | AC50 [1] [nM] | IC50 ([2]; H1299 p53 R273H) [µM] | IC50 ([3]; H1299 p53 Y220C) [nM] | Kd ([4]; kinetic KD) [nM] | ΔTm at 10 µM [6, 8] [°C] | ΔTm at 100 µM [6, 9] [°C] | AC50 ([1]; AC50) [nM] | Emax ([1]; Emax) [%] | IC50 [2, 10] [µM] | IC50 [3, 11] [nM] | Kd [4] [nM] | ΔTm at 10 µM [6, 12] [°C] | ΔTm at 100 µM [6, 12] [°C] | IC50 ([5]; NUGC3 p53 Y220C) [nM] | IC50 ([5]; NUGC3 cells) [nM]
1 | CNC(=O)c1ccc(NCC#Cc2nn3c(N[C@@H]4CCN(C)C[C@@H]4F)cccc3c2SC(F)F)c(OC)c1 [Example 219, 4-[(3-{3-[(difluoromethyl)sulfanyl]-7-{[(3S,4R)-3-fluoro-1-methylpiperidin-4-yl]amino}pyrazolo[1,5-a]pyridin-2-yl}prop-2-yn-1-yl)amino]-3-methoxy-N-methylbenzamide] | 80 to 90 | < 750 | 5 to 8 | < 750 | < 10 | 5 to 10 | 5 to 10 |  |  |  |  |  |  |  | < 750 | 
2 | CNC(=O)c1ccc(OC)c(NCC#Cc2nc3c(N[C@@H]4CCNC[C@@H]4F)cccn3c2CC(F)(F)F)c1 [Example 222] | < 70 | > 3000 | ≥ 10 | 1500 to 3000 | < 10 | ≥ 10 | ≥ 10 |  |  |  |  |  |  |  | < 750 | 
3 | CNC(=O)c1ccc(NCC#Cc2nn3c(N[C@@H]4CCN(C)C[C@@H]4F)cccc3c2SC(F)(F)F)c(OC)c1 [Example 223, 4-{[3-(7-{[(3S,4R)-3-fluoro-1-methylpiperidin-4-yl]amino}-3-[(trifluoromethyl)sulfanyl]pyrazolo[1,5-a]pyridin-2-yl)prop-2-yn-1-yl]amino}-3-methoxy-N-methylbenzamide] |  |  |  |  |  |  |  | < 750 | 80 to 90 | ≥ 10 | < 750 | < 10 | ≥ 10 | ≥ 10 |  | < 750
4 | CNC(=O)c1ccc(NCC#Cc2nc3c(NC4COC4)cccn3c2SC(F)(F)F)c(OC)c1 [Example 225] |  |  |  |  |  |  |  | 750 to 1500 | 80 to 90 | ≥ 10 | 750 to 1500 | 10 to 100 | 1 to 5 | 5 to 10 |  | 1500 to 3000
5 | CNC(=O)c1ccc(OC)c(NCC#Cc2nn3c(N[C@@H]4CCN(C)C[C@@H]4F)cccc3c2SC(F)(F)F)n1 [Example 234] |  |  |  |  |  |  |  | < 750 | 80 to 90 | 8 to 10 | < 750 | < 10 | ≥ 10 |  |  | < 750
6 | CNC(=O)c1ccc(NCC#Cc2nc3c(N[C@@H]4CCN(C)C[C@@H]4F)cccn3c2SC(F)(F)F)c(C)c1 [Example 239] |  |  |  |  |  |  |  | < 750 | > 90 | 8 to 10 | < 750 | < 10 | ≥ 10 | ≥ 10 |  | < 750

The next lines start with results.

Row | Emax [1, 7] [%] | AC50 [1] [nM] | IC50 ([2]; H1299 p53 R273H) [µM] | IC50 ([3]; H1299 p53 Y220C) [nM] | Kd ([4]; kinetic KD) [nM] | ΔTm at 10 µM [6, 8] [°C] | ΔTm at 100 µM [6, 9] [°C] | AC50 ([1]; AC50) [nM] | Emax ([1]; Emax) [%] | IC50 [2, 10] [µM] | IC50 [3, 11] [nM] | Kd [4] [nM] | ΔTm at 10 µM [6, 12] [°C] | ΔTm at 100 µM [6, 12] [°C] | Structure (SMILES) | IC50 ([5]; NUGC3 p53 Y220C) [nM] | IC50 ([5]; NUGC3 cells) [nM]
7 |  |  |  |  |  |  |  | < 750 | 80 to 90 | 5 to 8 | < 750 | < 10 | ≥ 10 | ≥ 10 | CNC(=O)c1ccc(OC)c(NCC#Cc2nn3c(N[C@@H]4CCN(C)C[C@@H]4F)cccc3c2SC(F)(F)F)c1 [Example 231] |  | < 750
8 |  |  |  |  |  |  |  | < 750 | 80 to 90 | 8 to 10 | < 750 | < 10 | ≥ 10 |  | COc1cc(C(N)=O)ccc1NCC#Cc1nn2c(N[C@@H]3CCN(C)C[C@@H]3F)cccc2c1SC(F)(F)F [Example 233] |  | < 750
9 |  |  |  |  |  |  |  | < 750 | 80 to 90 | 5 to 8 | < 750 | < 10 | ≥ 10 | ≥ 10 | CNC(=O)c1ccc(OC)c(NCC#Cc2nn3c(N[C@@H]4CCNC[C@@H]4F)cccc3c2SC(F)(F)F)c1 [Example 236] |  | < 750
10 |  |  |  |  |  |  |  | < 750 | 70 to 80 | 5 to 8 | < 750 | < 10 | ≥ 10 |  | CNC(=O)c1ccc(OC)c(NCC#Cc2nn3c(N[C@@H]4CCNC[C@@H]4F)cccc3c2SC(F)(F)F)n1 [Example 237] |  | < 750
11 |  |  |  |  |  |  |  | < 750 | 80 to 90 | 5 to 8 | < 750 | < 10 | ≥ 10 |  | COc1cc(S(C)(=O)=O)ccc1NCC#Cc1nn2c(N[C@@H]3CCNC[C@@H]3F)cccc2c1SC(F)(F)F [Example 238] |  | < 750
